Results as given in PubChem BioAssay AID330 (DTP/NCI, 2004).
“And” between values parts separate entries of the source, which are not always exact repeats. Identical values can stand only once. Inconclusive results and toxic doses are left out. Rule for the calls: active = survival T/C of 150% or more; inactive = T/C below 125% in these data.

System: P388 leukemia ip, CD2F1 mice, survival T/C
Test: NCI In Vivo Anticancer Drug Screen. Data for tumor model P388 Leukemia (intraperitoneal) in CD2F1 (CDF1) mice
Conditions: endpoint: median survival time, higher = longer survival
Summary of the method: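 Mice carrying the transplanted tumor received test compound or vehicle. Survival was recorded in each group, and the value is the treated-group measurement divided by that of the vehicle-treated control group.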

[1] = dose: 60.0 mg/kg/injection, schedule: Q01DX005 (ip), vehicle: saline with Tween-80
[2] = dose: 50.0 mg/kg/injection, schedule: Q01DX009 (ip), vehicle: saline with Tween-80
[3] = dose: 100.0 mg/kg/injection, schedule: Q01DX009 (ip), vehicle: saline with Tween-80
[4] = dose: 200.0 mg/kg/injection, schedule: Q01DX009 (ip), vehicle: saline with Tween-80
[5] = dose: 120.0 mg/kg/injection, schedule: Q01DX005 (ip), vehicle: saline with Tween-80
[6] = dose: 240.0 mg/kg/injection, schedule: Q01DX005 (ip), vehicle: saline with Tween-80

Measured: T/C

CCOc1cc2c(C)c3ccccc3c(C)c2c2ccccc12
inactive: dose: 42.0 mg/kg/injection, schedule: Q01DX009 (ip), vehicle: saline with Tween-80 98 % of control | dose: 50.0 mg/kg/injection, schedule: Q04DX003 (ip), vehicle: other 88 % of control | dose: 84.0 mg/kg/injection, schedule: Q01DX009 (ip), vehicle: saline with Tween-80 94 % of control | dose: 100.0 mg/kg/injection, schedule: Q04DX003 (ip), vehicle: other 86 % of control | dose: 168.0 mg/kg/injection, schedule: Q01DX009 (ip), vehicle: saline with Tween-80 107 % of control | dose: 400.0 mg/kg/injection, schedule: Q04DX003 (ip), vehicle: other 86 % of control

NC(=S)c1ccc(N=Cc2cccs2)cc1
inactive: dose: 100.0 mg/kg/injection, schedule: Q01DX001 (ip), vehicle: Klucel (hydroxypropylcellulose) (HPC) 108 % of control | dose: 200.0 mg/kg/injection, schedule: Q01DX001 (ip), vehicle: Klucel (hydroxypropylcellulose) (HPC) 105 % of control | dose: 400.0 mg/kg/injection, schedule: Q01DX001 (ip), vehicle: Klucel (hydroxypropylcellulose) (HPC) 102 % of control

NC1=NC(CNC(=O)c2cccc([N+](=O)[O-])c2)N(c2cccc(Cl)c2)C(N)=N1 (stereo not drawn)
inactive: dose: 50.0 mg/kg/injection, schedule: Q01DX005 (ip), vehicle: saline 100 % of control | dose: 100.0 mg/kg/injection, schedule: Q01DX005 (ip), vehicle: saline 107 % of control | dose: 200.0 mg/kg/injection, schedule: Q01DX005 (ip), vehicle: saline 109 % of control

O=S(=O)(c1cnccc1N1CCN(CCO)CC1)N1CCCC1
inactive: dose: 50.0 mg/kg/injection, schedule: Q01DX009 (ip), vehicle: saline 106 % of control | dose: 100.0 mg/kg/injection, schedule: Q01DX009 (ip), vehicle: saline 101 % of control | dose: 200.0 mg/kg/injection, schedule: Q01DX009 (ip), vehicle: saline 87 % of control

COC(=O)[C@]12CCC(C)(C)C[C@H]1C1=CC[C@@H]3[C@@]4(C)C[C@H](O)[C@H](OC5OC(CO)C(O)C(O)C5O)C(CO)(CO)[C@@H]4CC[C@@]3(C)[C@]1(C)C[C@H]2O (stereo partly drawn)
inactive: dose: 2.5 mg/kg/injection, schedule: Q01DX005 (ip), vehicle: Klucel (hydroxypropylcellulose) (HPC) 94 % of control | dose: 5.0 mg/kg/injection, schedule: Q01DX005 (ip), vehicle: Klucel (hydroxypropylcellulose) (HPC) 95 % of control | dose: 10.0 mg/kg/injection, schedule: Q01DX005 (ip), vehicle: Klucel (hydroxypropylcellulose) (HPC) 100 % of control | dose: 20.0 mg/kg/injection, schedule: Q01DX005 (ip), vehicle: Klucel (hydroxypropylcellulose) (HPC) 101 % of control

Cc1c2c(c(O)c3c(O)cccc13)C(=O)C1(O)C(O)=C(C(=O)NCNc3ccc(C(N)=O)cn3)C(=O)C(N(C)C)C1C2 (stereo not drawn)
inactive: dose: 3.12 mg/kg/injection, schedule: Q01DX005 (ip), vehicle: saline 111 % of control | dose: 6.25 mg/kg/injection, schedule: Q01DX005 (ip), vehicle: saline 114 % of control and 117 % of control | dose: 12.5 mg/kg/injection, schedule: Q01DX005 (ip), vehicle: saline 114 % of control | dose: 25.0 mg/kg/injection, schedule: Q01DX005 (ip), vehicle: saline 120 % of control

[O-]/[N+](C1C(Cl)C2CC1C1C=CCC12)=[N+](\[O-])C1C(Cl)C2CC1C1C=CCC12 (stereo not drawn)
inactive: dose: 15.0 mg/kg/injection, schedule: Q01DX005 (ip), vehicle: saline with Tween-80 95 % of control | dose: 30.0 mg/kg/injection, schedule: Q01DX005 (ip), vehicle: saline with Tween-80 92 % of control | [1] 100 % of control and 86 % of control

CCOc1ccc2nc([NH-])sc2c1.CCOc1ccc2nc([NH-])sc2c1.CCOc1ccc2nc([NH-])sc2c1.CCOc1ccc2nc([NH-])sc2c1.[Cl][Rh][Cl]
inactive: dose: 12.5 mg/kg/injection, schedule: Q01DX001 (ip), vehicle: DMSO 102 % of control | dose: 25.0 mg/kg/injection, schedule: Q01DX001 (ip), vehicle: DMSO 102 % of control and 105 % of control | dose: 50.0 mg/kg/injection, schedule: Q01DX001 (ip), vehicle: DMSO 107 % of control and 94 % of control | dose: 100.0 mg/kg/injection, schedule: Q01DX001 (ip), vehicle: DMSO 113 % of control and 124 % of control and 91 % of control

Cc1ccc2[nH]c(=S)[nH]c2c1
inactive: dose: 25.0 mg/kg/injection, schedule: Q01DX009 (ip), vehicle: saline with Tween-80 95 % of control | [2] 94 % of control | [3] 96 % of control | [4] 93 % of control

CCCCCCCCCCCCCCCC[N+](C)(C)C
inactive: dose: 1.56 mg/kg/injection, schedule: Q01DX009 (ip), vehicle: saline 99 % of control and 115 % of control and 120 % of control | dose: 1.56 mg/kg/injection, schedule: Q04DX003 (ip), vehicle: saline with Tween-80 100 % of control | dose: 2.0 mg/kg/injection, schedule: Q01DX009 (ip), vehicle: saline 113 % of control | dose: 3.12 mg/kg/injection, schedule: Q01DX009 (ip), vehicle: saline 118 % of control and 121 % of control | dose: 3.13 mg/kg/injection, schedule: Q01DX009 (ip), vehicle: saline 109 % of control | dose: 3.13 mg/kg/injection, schedule: Q04DX003 (ip), vehicle: saline with Tween-80 104 % of control | dose: 4.7 mg/kg/injection, schedule: Q01DX009 (ip), vehicle: saline 86 % of control | dose: 6.25 mg/kg/injection, schedule: Q04DX003 (ip), vehicle: saline with Tween-80 100 % of control and 112 % of control

COC(=O)/C(=C1/OC(=O)C(c2ccc(OC(C)=O)cc2)=C1O)c1ccc(Cl)cc1
inactive: dose: 50.0 mg/kg/injection, schedule: Q01DX009 (ip), vehicle: saline + Tween-80 + alcohol 111 % of control | dose: 100.0 mg/kg/injection, schedule: Q01DX009 (ip), vehicle: saline + Tween-80 + alcohol 115 % of control

C=C1C(=O)OC2/C=C(\C)C(=O)CC3OC(C)(C)OC3(C)CC(OC(=O)/C(C)=C/C)C12 (stereo not drawn)
inactive: dose: 10.0 mg/kg/injection, schedule: Q01DX009 (ip), vehicle: saline with Tween-80 99 % of control | dose: 20.0 mg/kg/injection, schedule: Q01DX009 (ip), vehicle: saline with Tween-80 105 % of control | dose: 40.0 mg/kg/injection, schedule: Q01DX009 (ip), vehicle: saline with Tween-80 90 % of control

N[C@@H](C(=O)O)[C@@H]1C=CCCC1
inactive: dose: 100.0 mg/kg/injection, schedule: Q04DX002 (ip), vehicle: saline 101 % of control | dose: 200.0 mg/kg/injection, schedule: Q04DX002 (ip), vehicle: saline 94 % of control

C=CCCCCn1c2ccccc2c2c(C)c3cnccc3c(C)c21
inactive: [2] 100 % of control | [3] 115 % of control | [4] 115 % of control

CCOC(=O)CC(C)P(c1ccccc1)C(C)CC(=O)OCC (stereo not drawn)
inactive: dose: 50.0 mg/kg/injection, schedule: Q01DX005 (ip), vehicle: saline with Tween-80 105 % of control | [1] 98 % of control | dose: 100.0 mg/kg/injection, schedule: Q01DX005 (ip), vehicle: saline with Tween-80 99 % of control | [5] 101 % of control | dose: 200.0 mg/kg/injection, schedule: Q01DX005 (ip), vehicle: saline with Tween-80 102 % of control | [6] 105 % of control

C=C1C(=O)SC(=NCc2ccccc2)N1C
inactive: [1] 96 % of control | [5] 90 % of control | [6] 91 % of control

Cc1ccc(Cl)cc1NC(=O)COc1ccc(Cl)cc1Cl
inactive: dose: 100.0 mg/kg/injection, schedule: Q04DX003 (ip), vehicle: saline with Tween-80 100 % of control | dose: 200.0 mg/kg/injection, schedule: Q04DX003 (ip), vehicle: saline with Tween-80 100 % of control | dose: 400.0 mg/kg/injection, schedule: Q04DX003 (ip), vehicle: saline with Tween-80 90 % of control

CCCCc1ccc2nc(C)cc(N/N=C/c3ccc4c(c3)OCO4)c2c1
inactive: dose: 12.5 mg/kg/injection, schedule: Q01DX005 (ip), vehicle: Klucel (hydroxypropylcellulose) (HPC) 94 % of control | dose: 25.0 mg/kg/injection, schedule: Q01DX005 (ip), vehicle: Klucel (hydroxypropylcellulose) (HPC) 100 % of control | dose: 50.0 mg/kg/injection, schedule: Q01DX005 (ip), vehicle: Klucel (hydroxypropylcellulose) (HPC) 92 % of control and 94 % of control | dose: 200.0 mg/kg/injection, schedule: Q01DX005 (ip), vehicle: Klucel (hydroxypropylcellulose) (HPC) 92 % of control
